From patent publication US20240425500A1 (priority 2021, published 2024)

Legend:
[1] = system: Plasmopara viticola; experiment: whole plant or invertebrate; format: in vivo; conditions: foliar, read-out: control of Plasmopara viticola compared to untreated control
[2] = system: Phytophthora infestans; experiment: whole plant or invertebrate; format: in vivo; conditions: in Solanum lycopersicum, foliar, read-out: control of Phytophthora infestans compared to untreated control
[3] = system: Pythium ultimum; experiment: Pythium ultimum / liquid culture (seedling damping off); format: cell-based; conditions: Globisporangium ultimum, liquid culture in PDB, 24 °C, 2-3 days after application, read-out: control of Pythium ultimum (inhibition of growth, photometric) compared to untreated control
In short: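 Mycelia fragments and oospores from fresh liquid culture mixed into potato dextrose broth and added to compound in DMSO. Incubated at 24° C.; growth inhibition read photometrically 2–3 days after application.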

CCc1cc(C(=O)N(C)c2ccc(F)cc2)cn2c(-c3ccc(NC(=O)OC)nc3)cnc12 [Compound 170, methyl N-[5-[8-ethyl-6-[(4-fluorophenyl)-methyl-carbamoyl]imidazo[1,2-a]pyridin-3-yl]-2-pyridyl]carbamate]
≥ 80%: pest or weed control at 200 ppm [1] | pest or weed control at 200 ppm [2] | inhibition at 20 ppm [3]

COC(=O)Nc1ccc(-c2cnc3ccc(C(=O)N(C)c4ccc(Cl)cc4)cn23)cn1 [Compound 4, methyl N-[5-[6-[(4-chlorophenyl)-methyl-carbamoyl]imidazo[1,2-a]pyridin-3-yl]-2-pyridyl]carbamate]
≥ 80%: pest or weed control at 200 ppm [1] | pest or weed control at 200 ppm [2] | inhibition at 20 ppm [3]

COC(=O)Nc1ccc(-c2cnc3ccc(C(=O)N(C)c4ccc(F)c(OC)c4)cn23)cc1 [Compound 158, methyl N-[4-[6-[(4-fluoro-3-methoxy-phenyl)-methyl-carbamoyl]imidazo[1,2-a]pyridin-3-yl]phenyl]carbamate]
≥ 80%: pest or weed control at 200 ppm [1] | pest or weed control at 200 ppm [2] | inhibition at 20 ppm [3]

COC(=O)Nc1ccc(-c2cnc3c(C)cc(C(=O)N(C)c4ccc(F)cc4)cn23)cn1 [Compound 82, methyl N-[5-[6-[(4-fluorophenyl)-methyl-carbamoyl]-8-methyl-imidazo[1,2-a]pyridin-3-yl]-2-pyridyl]carbamate]
≥ 80%: pest or weed control at 200 ppm [1] | pest or weed control at 200 ppm [2] | inhibition at 20 ppm [3]

COC(=O)Nc1ccc(-c2cnc3c(Br)cc(C(=O)N(C)c4ccc(F)cc4)cn23)cn1 [Compound 98, methyl N-[5-[8-bromo-6-[(4-fluorophenyl)-methyl-carbamoyl]imidazo[1,2-a]pyridin-3-yl]-2-pyridyl]carbamate]
≥ 80%: pest or weed control at 200 ppm [1] | pest or weed control at 200 ppm [2] | inhibition at 20 ppm [3]

COC(=O)Nc1ccc(-c2cnc3ccc(C(=O)N(C)c4ccc(F)cc4)cn23)cn1 [Compound 25, methyl N-[5-[6-[(4-fluorophenyl)-methyl-carbamoyl]imidazo[1,2-a]pyridin-3-yl]-2-pyridyl]carbamate]
≥ 80%: pest or weed control at 200 ppm [1] | pest or weed control at 200 ppm [2] | inhibition at 20 ppm [3]

CCN(C(=O)c1ccc2ncc(-c3ccc(NC(=O)OC)nc3)n2c1)c1ccc(F)c(C)c1 [Compound 116, methyl N-[5-[6-[ethyl-(4-fluoro-3-methyl-phenyl)carbamoyl]imidazo [1,2-a]pyridin-3-yl]-2-pyridyl]carbamate]
≥ 80%: pest or weed control at 200 ppm [1] | pest or weed control at 200 ppm [2] | inhibition at 20 ppm [3]

COC(=O)Nc1ccc(-c2cnc3ccc(C(=O)N(C)c4ccnc(OC)c4)cn23)cn1 [Compound 70, methyl N-[5-[6-[(2-methoxy-4-pyridyl)-methyl-carbamoyl]imidazo[1,2-a]pyridin-3-yl]-2-pyridyl]carbamate]
≥ 80%: pest or weed control at 200 ppm [1] | pest or weed control at 200 ppm [2] | inhibition at 20 ppm [3]

COC(=O)Nc1ccc(-c2cnc3ccc(C(=O)N(CC#N)c4ccc(F)c(OC)c4)cn23)cn1 [Compound 89, methyl N-[5-[6-[cyanomethyl-(4-fluoro-3-methoxy-phenyl)carbamoyl]imidazo [1,2-a]pyridin-3-yl]-2-pyridyl]carbamate]
≥ 80%: pest or weed control at 200 ppm [1] | pest or weed control at 200 ppm [2] | inhibition at 20 ppm [3]

COCc1cc(C(=O)N(C)c2ccc(F)cc2)cn2c(-c3ccc(NC(=O)OC)nc3)cnc12 [Compound 172, methyl N-[5-[6-[(4-fluorophenyl)-methyl-carbamoyl]-8-(methoxymethyl)imidazo[1,2-a]pyridin-3-yl]-2-pyridyl]carbamate]
≥ 80%: pest or weed control at 200 ppm [1] | pest or weed control at 200 ppm [2] | inhibition at 20 ppm [3]
